No end group written: not given here.
How the values were obtained:
[1] = tested on: Zymosan-induced murine dorsal air pouch model; assay type: in vivo, mice; conditions: 200 μg/mouse i.v., 4 h
Experimental: In order to analyze the ability of P58 to exert in vivo effects via the FPRL1 receptor, an acute experimental model of inflammation, the Zymosan-induced murine dorsal air pouch model, was used.
Male out-bred Swiss albino mice were purchased from Harlan, UK (T.O. strain) and maintained on a standard chow pellet diet with tap water ad libitum and a 12:00 h light/dark cycle. All animals were housed for 7 days prior to experimentation to allow body weight to reach ˜30 g on the day of the experiment.
Drugs were stored at −20° C. and defrosted on the day of the experiment. Peptide P58 was provided lyophilized; it was taken back to room temperature and dissolved with sterile PBS before use to make an initial 1 mg/ml solution. […]
Flow cytometry was performed using FACScan analyser (Becton Dickinson, Cowley, UK) with air-cooled 100 mW argon laser tuned to 488 nm connected to an Apple Macintosh G3 computer running Cell Quest II software. […] Cells positive for GR-1 were detected in the FL2 channel (wavelength of 548 nm). Data are expressed as percentage of positive cells (in relation to the specific mAb). […] Once determined, quadrants were rigorously maintained for all analyses.
Data are shown for single mice, and also shown as mean±S.E. of (n) mice per group. Statistical differences were determined by ANOVA, plus Student Newman Keuls test. […]

MrgX1 = biological target: T1, MrgX1 (Homo sapiens, UniProt Q96LB2); experiment: Calcium flux in CHO-K1 cells co-transfected with MrgX1 and Gα16; assay type: cell-based; conditions: dose response 1-3000 nM
T1 construct: expressed in transfected cells; host or cells: CHO-K1 (ATCC-CCL-61), transient co-transfection
Experimental: (§1) The assay was carried out in CHO cells were transiently transfected with the GPCR of choice, by utilizing the promiscuous Gα16 to divert signaling to the Gq pathway, thus enabling readout of GPCR activation by testing for Calcium flux as described by Liu et al 2003 (Biomol Screen 8, 39-49).
(§2) All the peptides thus obtained were tested for their ability to change calcium flux in CHO—K1 cells (ATCC-CCL-61) transiently co-transfected with an expression vector containing the GPCR of choice and expression vector containing the Gα16 encoding cDNA. Expression constructs containing cDNA clones for MrgX1, MrgX2, Mas or FPRL1 were commercially obtained in one of the following expression vectors: pcDNA3.1, pCMV6, or MO2.
Transient transfections were performed using CHO—K1 cells as host cells. […]
On the day of the experiment, cells were loaded with Fluo4-NW (Invitrogen) according to the manufacturer's recommendation. Plates were loaded into a FlexStation™ (Molecular Devices) plate reader and fluorescence was monitored. Seventeen seconds following initiation of reading, cells were stimulated with the indicated agonist/compound at final concentration of 1 μM. […]
Based on dose response experiments, EC50 best fit values were calculated by non-linear regression of sigmoidal dose-response curves, using Prism version 4 (GraphPad Software Inc., San Diego, Calif.). […]

FPRL1 [2] = biological target: T2, FPRL1 (Homo sapiens, UniProt P25090); experiment: Competitive radioligand binding assay ([125I] WKYMVm) to FPRL1 in CHO transfected cells; design: expressed in transfected cells; host or cells: CHO transfected cells; conditions: 0.025 nM [125I] WKYMVm, 90 minutes at 25° C.; read-out: IC50, inhibition of W peptide binding
T2 sequence (P25090 1-351): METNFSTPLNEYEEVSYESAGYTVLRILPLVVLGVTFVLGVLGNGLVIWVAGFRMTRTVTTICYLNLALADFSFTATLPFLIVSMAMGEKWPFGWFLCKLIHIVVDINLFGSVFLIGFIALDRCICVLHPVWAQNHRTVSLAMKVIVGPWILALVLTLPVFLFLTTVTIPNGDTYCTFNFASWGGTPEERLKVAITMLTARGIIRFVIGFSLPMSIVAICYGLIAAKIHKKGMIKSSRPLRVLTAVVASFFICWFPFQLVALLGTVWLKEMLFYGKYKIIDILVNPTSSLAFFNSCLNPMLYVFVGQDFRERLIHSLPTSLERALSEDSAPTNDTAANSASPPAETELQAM
Experimental: The specific binding of Peptide 58 (SEQ ID NO:1) to FPRL1 was analyzed by testing its ability to compete with 0.025 nM [^125I] WKYMVm (W peptide), a known agonist of FPRL1, for binding to FPRL1 in CHO transfected cells. CKβ8-1 (aa 46-137), another known ligand of FPRL1 was used as a positive control in this assay (Chiang et al 2006, Pharmacological Reviews 58, 463-487). Peptides were incubated with cells for 90 minutes at 25° C., in the presence of Incubation Buffer (50 mM HEPES, pH 7.4, 100 mM NaCl, 5 mM KCl, 5 mM MgCl2, 2 mM Ca Cl2, 0.5% BSA) and the amount of radioactive W peptide was measured.

FPRL1 [3] = biological target: T2, FPRL1; experiment: Calcium flux in CHO-K1 cells co-transfected with FPRL1 and Gα16; assay type: cell-based; design: expressed in transfected cells; host or cells: CHO-K1 (ATCC-CCL-61), transient co-transfection
Experimental: as §1, §2
Transient transfections were performed using CHO—K1 cells as host cells. Cells (12 million) were plated into T75 flasks on the day preceding transfection. Cells were transfected with the appropriate GPCR expression vector and with a vector expressing Gα16 using a lipid-based reagent, MTI, according to the manufacturer's recommendation. Cells were transfected for 5 hours, then re-plated into 96-well dishes (60,000 cells per well) and grown overnight.
On the day of the experiment, cells were loaded with Fluo4-NW (Invitrogen) according to the manufacturer's recommendation. Plates were loaded into a FlexStation™ (Molecular Devices) plate reader and fluorescence was monitored. Seventeen seconds following initiation of reading, cells were stimulated with the indicated agonist/compound at final concentration of 1 μM. Each 96 well plate contained cells transfected with one GPCR expression vector and each of the examined peptides was tested in triplicate.
We defined a hit as a peptide which elicited a clear and distinct increase in intracellular calcium that is clearly visible and statistically significant upon examination of the calcium trace for at least two repeats. The criterion for statistical significance was a p-value lower than 0.001 in a t-test comparing the levels of calcium before and after peptide addition.
Based on dose response experiments, EC50 best fit values were calculated by non-linear regression of sigmoidal dose-response curves, using Prism version 4 (GraphPad Software Inc., San Diego, Calif.). The formulae for the sigmoidal dose-response curves was defined as Y=Bottom+(Top−Bottom)/(1+10^ (LogEC50−X)*HillSlope))
The ability of Peptides to change calcium flux was examined in CHO—K1 cells co-transfected with FPRL1 and Gal 6.

T1 sequence (Q96LB2 whole entry): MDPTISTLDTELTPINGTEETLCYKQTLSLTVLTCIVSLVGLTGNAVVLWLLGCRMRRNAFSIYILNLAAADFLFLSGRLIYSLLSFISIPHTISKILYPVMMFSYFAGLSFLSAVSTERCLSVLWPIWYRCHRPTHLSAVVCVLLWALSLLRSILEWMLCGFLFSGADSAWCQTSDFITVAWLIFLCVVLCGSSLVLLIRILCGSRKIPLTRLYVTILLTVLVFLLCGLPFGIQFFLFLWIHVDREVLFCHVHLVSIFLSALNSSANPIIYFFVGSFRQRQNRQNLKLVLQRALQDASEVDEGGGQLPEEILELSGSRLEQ

## Ac2-26: a peptide derived from the N-terminus of AnnexinI; known FPRL1 agonist possessing anti-inflammatory activity; positive control (AMVSEFLKQAWFIENEEQEYVQTVK)
[1]
  inhibition of leukocyte accumulation triggered by zymosan A: inhibited significantly
[1]; FACS
  inhibition of neutrophil (GR-1+) accumulation triggered by zymosan A: 52%

## CSCC[C@H](NC(=O)[C@H](Cc1ccccc1)NC(=O)CNC(=O)CNC(=O)[C@@H](N)Cc1ccc(O)cc1)C(=O)N[C@@H](CCCNC(=N)N)C(=O)N[C@@H](CCCNC(=N)N)C(=O)N[C@H](C(=O)NCC(=O)N[C@@H](CCCNC(=N)N)C(=O)N1CCC[C@H]1C(=O)N[C@@H](CCC(=O)O)C(=O)N[C@@H](Cc1c[nH]c2ccccc12)C(=O)N[C@@H](Cc1c[nH]c2ccccc12)C(=O)N[C@@H](CCSC)C(=O)N[C@@H](CC(=O)O)C(=O)N[C@@H](Cc1ccc(O)cc1)C(=O)N[C@@H](CCC(N)=O)C(=O)N[C@@H](CCCCN)C(=O)N[C@@H](CCCNC(=N)N)C(=O)N[C@@H](Cc1ccc(O)cc1)C(=O)NCC(=O)O)C(C)C [BAM22, reference compound]
MrgX1
  EC50: ≥ 50 nM

## GIGSVWHWKHRVATRFTLPRFLQ [Peptide P60_S]
MrgX1
  EC50: ≥ 300 nM

## TIPMFVPESTSKLQKFTSWFM-NH2 [Peptide P58]
FPRL1 [2]
  IC50: 189 nM
FPRL1 [3]; 1 μM, three wells, about 20 to 90 seconds
  calcium flux relative to the negative control: increased calcium flux
FPRL1 [3]; dose response
  calcium flux, P58 and derivatives: elicited calcium flux

— patent publication US8349801B2, “Peptide ligands for G-protein coupled receptors” (priority 2006, dated 2013)
